Patent publication US9951024B2, “Small-molecule inhibitors targeting G-protein-coupled Rho guanine nucleotide exchange factors” (Children's Hospital Medical Center, priority 2013, dated 2018)

Tests used:
[1] = target: T1, RhoA-LARG interaction (Homo sapiens, UniProt Q9NZN5); assay: In vitro complex formation assay, LARG binding to RhoA; details: for inhibition at 100 µM: read-out: Relative binding inhibition, %
T1 construct: human LARG (residues 765-1,138); made in house; host or cells: E. coli BL21 (DE3) (LARG), E. coli DH5α (GST-RhoA)
T1 sequence (Q9NZN5 765-1138 limits assumed): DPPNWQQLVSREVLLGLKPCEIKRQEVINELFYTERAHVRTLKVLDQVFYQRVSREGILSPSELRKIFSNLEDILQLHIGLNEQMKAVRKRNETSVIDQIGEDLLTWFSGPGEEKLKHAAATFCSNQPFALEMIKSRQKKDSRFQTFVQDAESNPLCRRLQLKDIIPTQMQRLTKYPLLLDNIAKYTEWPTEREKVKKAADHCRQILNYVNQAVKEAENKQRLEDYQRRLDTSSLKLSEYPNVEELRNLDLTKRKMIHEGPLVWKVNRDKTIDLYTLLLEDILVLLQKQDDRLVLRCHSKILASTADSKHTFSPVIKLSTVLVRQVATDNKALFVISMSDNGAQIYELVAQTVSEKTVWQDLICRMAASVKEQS
Protocol: About 1 μg of (His)6-tagged LARG DH-PH was incubated with 1 μg of EDTA-treated GSTRhoA or Cdc42 or GST alone in a binding buffer [20 mM Tris.HCl (pH 7.6), 100 mM NaCl, 1% BSA, 1% Triton X-100, 1 mM MgCl2] containing 15 μL of suspended glutathione-agarose beads. Y16 or other chemicals were added in the incubation buffer at the indicated concentrations. After an incubation at 4° C. for 1 h under constant agitation, the glutathione beads were washed twice with the binding buffer. The amount of (His)6-tagged protein coprecipitated with GST-fusion bound beads was detected by anti-His Western blotting. Similarly, cell lysates containing myc-Tiam1, (His)6-Cdc42, (His)6-TrioN, or (His)6-RhoA were mixed with purified GST-Rac1, GST-Cdc42, GST-mDia, GST-PKN, GSTROCKII, GST-p190GAP, or GST alone, and pairwise association was assessed in the presence or absence of indicated amount of Y16 and/or Rhosin.
The information in FIG. 4 was obtained by the following procedures. (A) Dose-dependent specific inhibition of LARG binding to RhoA by Y16, G04, or G04+Y16 combination at varying concentrations. (B) NIH 3T3 cells were treated with Y16, G04, or G04+Y16 combination at the indicated concentrations for 24 h in serum-free media. Cells were subsequently stimulated with 10% calf serum for 15 min and were subjected to GST-Rhotekin effector domain pull-down assays, and the activities of RhoA were examined. Relative amounts of GTP-bound form of the GTPases were quantified by densitometry measurements and normalized to those of the unstimulated cells. (C) NIH 3T3 cells were treated with Y16, G04, or G04+Y16 combination at the indicated concentrations for 24 h in serum-free media. Cells were subsequently stimulated with 10% calf serum for 15 min and were subjected to GST-Rhotekin and GST-PAK1 effector domain pull-down assays, and the activities of RhoA, Cdc42, and Rac1 were examined. Relative amounts of GTP-bound form of the GTPases were quantified by densitometry measurements and normalized to those of the nontreated cells. (D) NIH 3T3 cells were treated with Y16, G04, or G04+Y16 combination of the indicated concentrations in serum-free DMEM medium prior to stimulation with LPA (20 ng/mL) for 10 min. The cells were stained with rhodamine-phalloidin to reveal F-actin structures.
The inhibitory effects of the analogs were tested in a complex formation assay. (His)6-tagged LARG PH-DH (1 μg) was incubated with GST alone or GST-RhoA conjugated with glutathione agarose beads in the presence or absence of 100 μM indicated compounds. After an incubation at 4° C. for 1 h, the beads-associated (His)6-LARG PH-DH was detected by anti-His Western blotting. The relative inhibition of each analog was normalized to the inhibitory effect of Y16 of the same concentration.

[2] = target: RhoA (Homo sapiens, UniProt P61586); details: reference 26; cited from earlier work
[3] = tested on: RhoA-GTP; assay: Endogenous Rho GTPase activity assay, RhoA-GTP in NIH 3T3 cells; type: cell-based; details: Mus musculus, NIH3T3, serum stimulated, acting alone at 30 μM, read-out: inhibition of RhoA-GTP content
Protocol: The information in FIG. 3 was obtained by the following procedures. (A and B) NIH 3T3 cells were treated with Y16 at the indicated concentrations for 24 h in serum-free media. Cells were subsequently stimulated with 10% calf serum for 15 min and were subjected to GST-Rhotekin or GST-PAK1 effector domain pull-down assays, and the activities of RhoA, Cdc42, and Rac1 were examined. Relative amounts of GTP-bound form of the GTPases were quantified by densitometry measurements and normalized to those of the unstimulated cells. […]
NIH 3T3 cells, MCF7 cells, or HME cells were grown in log phase in a 10-cm dish or a six-well dish, and were starved in serum-free medium in the presence or absence of Y16 at indicated concentrations for 24 h and were subsequently stimulated with 10% calf serum or FBS for 15 min. […] Lysates were clarified, the protein concentrations were normalized, and the GTP-bound RhoA, Rac1, or Cdc42 in the lysates were measured by respective anti-RhoA, Rac1, and Cdc42 Western blotting of the effector domain pull downs.
The information in FIG. 4 was obtained by the following procedures. […] Relative amounts of GTP-bound form of the GTPases were quantified by densitometry measurements and normalized to those of the unstimulated cells. […] Relative amounts of GTP-bound form of the GTPases were quantified by densitometry measurements and normalized to those of the nontreated cells. […]

[4] = tested on: RhoA-GTP; assay: RhoA activity in MCF7-derived mammospheres; type: cell-based; details: alone at 10 μM
Protocol: The information in FIG. 5 was obtained by the following procedures. (A) Y16, G04, or G04+Y16 combination inhibits MCF7 breast cell growth. MCF7 cells were plated at 1.5×10^4/24 well in the presence of Y16, G04, or G04+Y16 combination. Cell numbers were determined at the indicated times. (B) MCF7 cells were subjected migration assays in the presence of Y16, G04, or G04+Y16 combination. (C) The invasive activities were assayed in a Matrigel-coated transwell. (D) Y16, G04, or G04+Y16 combination inhibits RhoA and its downstream signaling activities in MCF7-derived mammospheres. (Upper) MCF7-derived mammospheres were treated with Y16, G04, or G04+Y16 combination at the indicated concentrations. Spheres were collected, and the RhoA activity was examined. Relative amounts of GTP-bound form of RhoA were quantified by densitometry measurements and normalized to those of the untreated cells. (Lower) Western blots are of p-MLC of MCF7-derived mammospheres. Y16, G04, or G04+Y16 combination inhibits MCF-7 cell-derived mammosphere formation. (E) MCF-7 cells were treated with Y16, G04, or G04+Y16 combination at the indicated concentrations for 24 h in serum-free media. MCF7 cells were dissociated to single cells with trypsin and cultured for 10 d at the density of 2×10^4/mL in suspension in the media containing G04 or Y16 at the indicated concentration. Photographs were taken after a 10-d culture. […]

[5] = 100 μM compound, normalized to the inhibitory effect of Y16 of the same concentration

RhoA, sequence (P61586 whole entry): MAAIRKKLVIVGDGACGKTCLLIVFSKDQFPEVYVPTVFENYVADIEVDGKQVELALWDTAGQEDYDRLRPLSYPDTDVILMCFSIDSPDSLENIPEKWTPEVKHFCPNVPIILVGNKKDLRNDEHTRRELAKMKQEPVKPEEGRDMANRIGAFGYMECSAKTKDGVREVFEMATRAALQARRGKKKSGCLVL

## O=C1NN(c2ccccc2)C(=O)/C1=C/c1ccc(OCc2ccccc2)cc1 [Compound 1]
[1]; 100 μM compound, normalized to the inhibitory effect of Y16 of the same concentration, 100 µM
  Relative binding inhibition, %: 27.12%
[1]; [5]
  inhibition at 100 µM: 27.1%

## COc1cc(/C=C2/C(=O)NN(c3ccccc3)C2=O)ccc1O [Compound 2]
[1]; [5]
  inhibition at 100 µM: 13%

## O=C1NN(c2ccccc2)C(=O)/C1=C\C1=NCc2ccccc21 [Compound 3]
[1]; [5]
  inhibition at 100 µM: 6.75%

## COc1cc(/C=C2/C(=O)NN(c3ccccc3)C2=O)cc(Br)c1OCCOc1ccc(C)cc1 [Compound 4]
[1]; [5]
  inhibition at 100 µM: 13.8%

## O=C1/C(=C\c2ccccc2OCc2ccccc2)CNN1c1ccc(Br)cc1 [Compound 5]
[1]; [5]
  inhibition at 100 µM: 7.34%

## N[C@H](Cc1c[nH]c2ccccc12)C(=O)N/N=C/c1ccc2nccnc2c1 [Compound G04, (2R)-2-amino-3-(1Hindol-3-yl)-N′-[(1E)-quinoxalin-6-ylmethylidene]propanehydrazide]
[2]
  binding affinity to RhoA: micromolar
[1]; inhibitors alone or combined together, read-out: IC50 for inhibition of RhoA binding to LARG
  IC50: ~10 µM
[3]
  inhibition at 30 µM: ~80%
[4]
  inhibition at 10 µM: ~50%
